Results published in ChEMBL document CHEMBL3885881, “DrugMatrix”.

Organism: Rattus norvegicus
Experiment: DrugMatrix - Regimen: Daily Repeat
Assay type: toxicity, organism-based, Sprague-Dawley
Set-up: regimen Daily Repeat, gender Male, age 6-8 weeks
Conditions: in vivo, po, 20 mg/kg, route oral GAVAGE, dose level Low, vehicle 100 % WATER; for ABSOLUTE BASOPHIL / ABSOLUTE EOSINOPHIL / ABSOLUTE LYMPHOCYTE / ABSOLUTE MONOCYTE / ABSOLUTE SEGMENTED NEUTROPHIL / BASOPHIL / EOSINOPHIL / ERYTHROCYTE COUNT / HEMATOCRIT / HEMOGLOBIN / LEUKOCYTE COUNT / LYMPHOCYTE / MEAN CORPUSCULAR HEMOGLOBIN / MEAN CORPUSCULAR HEMOGLOBIN CONCENTRATION / MEAN CORPUSCULAR VOLUME / MONOCYTE / NEUTROPHIL / NUCLEATED RED BLOOD CELLS / PLATELET COUNT: tissue Blood; for ALANINE AMINOTRANSFERASE / ALBUMIN / ALKALINE PHOSPHATASE / ASPARTATE AMINOTRANSFERASE / BLOOD UREA NITROGEN / CARBON DIOXIDE / CHLORIDE / CHOLESTEROL / CREATINE PHOSPHOKINASE / CREATININE / GLUCOSE / LACTATE DEHYDROGENASE / LIPASE / PHOSPHORUS / POTASSIUM / SODIUM / TOTAL BILIRUBIN / TOTAL PROTEIN / URIC ACID: tissue Plasma

## O=C(NCCN1CCOCC1)c1ccc(Cl)cc1 [MOCLOBEMIDE]
72 h, time 3 day
  ABSOLUTE BASOPHIL: 0 CELLS/uL
  ABSOLUTE EOSINOPHIL: 175 CELLS/uL
  ABSOLUTE LYMPHOCYTE: 12157.33 CELLS/uL
  ABSOLUTE MONOCYTE: 176.67 CELLS/uL
  ABSOLUTE SEGMENTED NEUTROPHIL: 691 CELLS/uL
  BASOPHIL: 0%
  EOSINOPHIL: 1%
  ERYTHROCYTE COUNT: 5.68 x10E6/uL
  HEMATOCRIT: 34.7%
  HEMOGLOBIN: 13.23 G/DL
  LEUKOCYTE COUNT: 13.2 x10E3/uL
  LYMPHOCYTE: 92.33%
  MEAN CORPUSCULAR HEMOGLOBIN: 23.33 pg
  MEAN CORPUSCULAR HEMOGLOBIN CONCENTRATION: 38.13 G/DL
  MEAN CORPUSCULAR VOLUME: 61.13 fL
  MONOCYTE: 1.33%
  NEUTROPHIL: 5.33%
  NUCLEATED RED BLOOD CELLS: 0 /100WBC
  PLATELET COUNT: 1220 x10E3/uL
  ALANINE AMINOTRANSFERASE: 54.33 u/L
  ALBUMIN: 4.07 G/DL
  ALKALINE PHOSPHATASE: 345 u/L
  ASPARTATE AMINOTRANSFERASE: 110.33 u/L
  BLOOD UREA NITROGEN: 17.33 mg/dL
  CARBON DIOXIDE: 23.67 mmol/L
  CHLORIDE: 102.67 MEQ/L
  CHOLESTEROL: 74 mg/dL
  CREATINE PHOSPHOKINASE: 379 u/L
  CREATININE: 0.2 mg/dL
  GLUCOSE: 174.67 mg/dL
  LACTATE DEHYDROGENASE: 728 u/L
  LIPASE: 9.67 u/L
  PHOSPHORUS: 14.07 mg/dL
  POTASSIUM: 6.99 MEQ/L
  SODIUM: 145.9 MEQ/L
  TOTAL BILIRUBIN: 0.2 mg/dL
  TOTAL PROTEIN: 5.7 G/DL
  URIC ACID: 2.03 mg/dL
120 h, time 5 day
  ABSOLUTE BASOPHIL: 0 CELLS/uL
  ABSOLUTE EOSINOPHIL: 0 CELLS/uL
  ABSOLUTE LYMPHOCYTE: 15547 CELLS/uL
  ABSOLUTE MONOCYTE: 117.33 CELLS/uL
  ABSOLUTE SEGMENTED NEUTROPHIL: 1669 CELLS/uL
  BASOPHIL: 0%
  EOSINOPHIL: 0%
  ERYTHROCYTE COUNT: 5.91 x10E6/uL
  HEMATOCRIT: 36.73%
  HEMOGLOBIN: 14.33 G/DL
  LEUKOCYTE COUNT: 17.33 x10E3/uL
  LYMPHOCYTE: 89.67%
  MEAN CORPUSCULAR HEMOGLOBIN: 24.33 pg
  MEAN CORPUSCULAR HEMOGLOBIN CONCENTRATION: 39 G/DL
  MEAN CORPUSCULAR VOLUME: 62.4 fL
  MONOCYTE: 0.67%
  NEUTROPHIL: 9.67%
  NUCLEATED RED BLOOD CELLS: 0 /100WBC
  PLATELET COUNT: 1391.67 x10E3/uL
  ALANINE AMINOTRANSFERASE: 57 u/L
  ALBUMIN: 4.1 G/DL
  ALKALINE PHOSPHATASE: 322.67 u/L
  ASPARTATE AMINOTRANSFERASE: 96.67 u/L
  BLOOD UREA NITROGEN: 15 mg/dL
  CARBON DIOXIDE: 27.33 mmol/L
  CHLORIDE: 101.33 MEQ/L
  CHOLESTEROL: 70.67 mg/dL
  CREATINE PHOSPHOKINASE: 318 u/L
  CREATININE: 0.17 mg/dL
  GLUCOSE: 156.67 mg/dL
  LACTATE DEHYDROGENASE: 488 u/L
  LIPASE: 9.67 u/L
  PHOSPHORUS: 13.7 mg/dL
  POTASSIUM: 6.88 MEQ/L
  SODIUM: 145.17 MEQ/L
  TOTAL BILIRUBIN: 0.17 mg/dL
  TOTAL PROTEIN: 5.83 G/DL
  URIC ACID: 1.63 mg/dL
